Test results taken from the supplement of paper PMC10733146.

Tests used:
Test in all cases: viability relative to DMSO control (fraction); higher = less drug effect (more viable cells)
Conditions in all cases: 48 h
[1] = test system: primary AML patient cells (S060)
How it was run: (§1)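 Compounds were pre-plated at five concentrations, one well each, in 384-well plates, and primary mononuclear tumour cells were plated on them at 4 × 10^4 cells per well. The cells, fresh or cryopreserved, had been Ficoll-isolated from blood or bone marrow or taken from processed lymph node. After 48 h at 37 °C and 5% CO2 in RPMI-1640 with penicillin/streptomycin, L-glutamine and human serum, viability was read as CellTiter-Glo luminescence relative to the median of 16 inner DMSO wells.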

[2] = test system: primary DLBCL patient cells (S076)
How it was run: as §1

[3] = test system: primary AML patient cells (S071)
How it was run: as §1

[4] = test system: primary T-NHL patient cells (S058)
How it was run: as §1

[5] = test system: primary B-PLL patient cells (S016)
How it was run: as §1

[6] = test system: primary AML patient cells (S085)
How it was run: as §1

[7] = test system: primary AML patient cells (S037)
How it was run: as §1

[8] = test system: primary AML patient cells (S091)
How it was run: as §1

[9] = test system: primary FL patient cells (S087)
How it was run: as §1

[10] = test system: primary ALL patient cells (S088)
How it was run: as §1

[11] = test system: primary MCL patient cells (S041)
How it was run: as §1

[12] = test system: primary AML patient cells (S011)
How it was run: as §1

[13] = test system: primary DLBCL patient cells (S049)
How it was run: as §1

[14] = test system: primary CLL patient cells (S031)
How it was run: as §1

[15] = test system: primary DLBCL patient cells (S082)
How it was run: as §1

[16] = test system: primary AML patient cells (S019)
How it was run: as §1

[17] = test system: primary AML patient cells (S089)
How it was run: as §1

CC[C@H](Nc1ncnc2[nH]cnc12)c1nc2cccc(F)c2c(=O)n1-c1ccccc1 [Idelalisib]
viability ([1]; 0.0032 µM): 1.04
viability ([1]; 0.016 µM): 1.02
viability ([1]; 0.08 µM): 1.03
viability ([1]; 0.4 µM): 1.08
viability ([1]; 2 µM): 1.03
viability ([2]; 0.0032 µM): 0.935
viability ([2]; 0.016 µM): 0.879
viability ([2]; 0.08 µM): 0.825
viability ([2]; 0.4 µM): 0.832
viability ([2]; 2 µM): 0.735
viability ([3]; 0.0032 µM): 0.959
viability ([3]; 0.016 µM): 0.868
viability ([3]; 0.08 µM): 0.812
viability ([3]; 0.4 µM): 0.733
viability ([3]; 2 µM): 0.662
viability ([4]; 0.0032 µM): 0.988
viability ([4]; 0.016 µM): 0.916
viability ([4]; 0.08 µM): 0.961
viability ([4]; 0.4 µM): 1.08
viability ([4]; 2 µM): 0.985
viability ([5]; 0.0032 µM): 1.08
viability ([5]; 0.016 µM): 0.889
viability ([5]; 0.08 µM): 0.905
viability ([5]; 0.4 µM): 0.794
viability ([5]; 2 µM): 0.751
viability ([6]; 0.0032 µM): 1.04
viability ([6]; 0.016 µM): 0.844
viability ([6]; 0.08 µM): 0.788
viability ([6]; 0.4 µM): 0.82
viability ([6]; 2 µM): 0.755
viability ([7]; 0.0032 µM): 0.976
viability ([7]; 0.016 µM): 1.03
viability ([7]; 0.08 µM): 1.03
viability ([7]; 0.4 µM): 1.81
viability ([7]; 2 µM): 0.983
viability ([8]; 0.0032 µM): 0.929
viability ([8]; 0.016 µM): 0.838
viability ([8]; 0.08 µM): 0.773
viability ([8]; 0.4 µM): 0.697
viability ([8]; 2 µM): 0.558
viability ([9]; 0.0032 µM): 0.984
viability ([9]; 0.016 µM): 0.923
viability ([9]; 0.08 µM): 0.848
viability ([9]; 0.4 µM): 0.78
viability ([9]; 2 µM): 0.793
viability ([10]; 0.0032 µM): 1.02
viability ([10]; 0.016 µM): 0.948
viability ([10]; 0.08 µM): 0.895
viability ([10]; 0.4 µM): 0.914
viability ([10]; 2 µM): 0.831
viability ([11]; 0.0032 µM): 0.949
viability ([11]; 0.016 µM): 0.908
viability ([11]; 0.08 µM): 0.886
viability ([11]; 0.4 µM): 0.893
viability ([11]; 2 µM): 0.887
viability ([12]; 0.0032 µM): 0.968
viability ([12]; 0.016 µM): 0.873
viability ([12]; 0.08 µM): 0.924
viability ([12]; 0.4 µM): 0.88
viability ([12]; 2 µM): 0.829
viability ([13]; 0.0032 µM): 1.02
viability ([13]; 0.016 µM): 1.02
viability ([13]; 0.08 µM): 0.968
viability ([13]; 0.4 µM): 1.02
viability ([13]; 2 µM): 0.94
viability ([14]; 0.0032 µM): 0.974
viability ([14]; 0.016 µM): 0.861
viability ([14]; 0.08 µM): 0.731
viability ([14]; 0.4 µM): 0.654
viability ([14]; 2 µM): 0.569
viability ([15]; 0.0032 µM): 1.05
viability ([15]; 0.016 µM): 0.893
viability ([15]; 0.08 µM): 0.812
viability ([15]; 0.4 µM): 0.768
viability ([15]; 2 µM): 0.668
viability ([16]; 0.0032 µM): 1.02
viability ([16]; 0.016 µM): 0.936
viability ([16]; 0.08 µM): 1.01
viability ([16]; 0.4 µM): 1.13
viability ([16]; 2 µM): 0.996
viability ([17]; 0.0032 µM): 0.965
viability ([17]; 0.016 µM): 0.739
viability ([17]; 0.08 µM): 0.924
viability ([17]; 0.4 µM): 0.671
viability ([17]; 2 µM): 0.58
